Measured values published in article PMC10702058, “Phase I dose escalation study and pilot efficacy analysis of LXI-15029, a novel mTOR dual inhibitor, in Chinese subjects with advanced malignant solid tumors” (BMC Cancer, 2023).
Entries after “also recorded” stand apart in the source; their conditions may differ.

Legend:
[1] = Phase I dose escalation: safety and tolerability (DLT, MTD, adverse events, NCI-CTCAE 4.03)
[2] = system: advanced malignant solid tumors; assay: Investigator-assessed antitumor effect (RECIST 1.1: ORR, DCR, PFS)
Method: All safety, tolerance, PK, and antitumor data from each dose group were tabulated and summarized according to the statistical analysis plan. The statistical analysis of the study was descriptive. The continuous variables were described as mean ± standard deviation or median (minimum, maximum). […] The categorical variables were described as n (%). PFS was summarized using the Kaplan–Meier method. […] All data processing, summaries, and analyses were performed using SAS 9.4 (SAS Institute, Cary, NC, USA).

CNC(=O)c1cccc(-c2ccc3c(N4C5CCC4COC5)nc(N4CCOC[C@@H]4C)nc3n2)c1 [LXI-15029]
≥ 10% TRAE: Neutropenia ([1]; 80 mg BID (n = 4)): 0 n (%) | ≥ 10% TRAE: Sinus bradycardia ([1]; 80 mg BID (n = 4)): 1 (25.0) n (%) | Patients with any TEAE ([1]; 110 mg BID (n = 3)): 3 (100.0) n (%) | Patients with any TEAE, maximum CTCAE Grade 1 ([1]; 110 mg BID (n = 3)): 3 (100.0) n (%) | Patients with any TEAE, maximum CTCAE Grade 2 ([1]; 110 mg BID (n = 3)): 0 n (%) | Patients with any TEAE, maximum CTCAE Grade 3 ([1]; 110 mg BID (n = 3)): 0 n (%) | ≥ 10% TRAE: ALT increased ([1]; 110 mg BID (n = 3)): 1 (33.3) n (%) | ≥ 10% TRAE: AST increased ([1]; 110 mg BID (n = 3)): 2 (66.7) n (%) | ≥ 10% TRAE: Decreased appetite ([1]; 110 mg BID (n = 3)): 0 n (%) | ≥ 10% TRAE: Diarrhea ([1]; 110 mg BID (n = 3)): 0 n (%) | ≥ 10% TRAE: ECG QT prolonged ([1]; 110 mg BID (n = 3)): 2 (66.7) n (%) | ≥ 10% TRAE: Fatigue ([1]; 110 mg BID (n = 3)): 0 n (%) | ≥ 10% TRAE: GGT increased ([1]; 110 mg BID (n = 3)): 0 n (%) | ≥ 10% TRAE: Hypercholesterolemia ([1]; 110 mg BID (n = 3)): 0 n (%) | ≥ 10% TRAE: Hypertriglyceridemia ([1]; 110 mg BID (n = 3)): 0 n (%) | ≥ 10% TRAE: LDL increased ([1]; 110 mg BID (n = 3)): 0 n (%) | ≥ 10% TRAE: Leukocytopenia ([1]; 110 mg BID (n = 3)): 1 (33.3) n (%) | ≥ 10% TRAE: Neutropenia ([1]; 110 mg BID (n = 3)): 0 n (%) | ≥ 10% TRAE: Sinus bradycardia ([1]; 110 mg BID (n = 3)): 0 n (%) | Patients with any TEAE ([1]; 150 mg BID (n = 4)): 4 (100.0) n (%) | Patients with any TEAE, maximum CTCAE Grade 1 ([1]; 150 mg BID (n = 4)): 2 (50.0) n (%) | Patients with any TEAE, maximum CTCAE Grade 2 ([1]; 150 mg BID (n = 4)): 1 (25.0) n (%) | Patients with any TEAE, maximum CTCAE Grade 3 ([1]; 150 mg BID (n = 4)): 1 (25.0) n (%) | ≥ 10% TRAE: ALT increased ([1]; 150 mg BID (n = 4)): 2 (50.0) n (%) | ≥ 10% TRAE: AST increased ([1]; 150 mg BID (n = 4)): 2 (50.0) n (%) | ≥ 10% TRAE: Decreased appetite ([1]; 150 mg BID (n = 4)): 1 (25.0) n (%) | ≥ 10% TRAE: Diarrhea ([1]; 150 mg BID (n = 4)): 0 n (%) | ≥ 10% TRAE: ECG QT prolonged ([1]; 150 mg BID (n = 4)): 0 n (%) | ≥ 10% TRAE: Fatigue ([1]; 150 mg BID (n = 4)): 0 n (%) | ≥ 10% TRAE: GGT increased ([1]; 150 mg BID (n = 4)): 2 (50.0) n (%) | ≥ 10% TRAE: Hypercholesterolemia ([1]; 150 mg BID (n = 4)): 0 n (%) | ≥ 10% TRAE: Hypertriglyceridemia ([1]; 150 mg BID (n = 4)): 1 (25.0) n (%) | ≥ 10% TRAE: LDL increased ([1]; 150 mg BID (n = 4)): 0 n (%) | ≥ 10% TRAE: Leukocytopenia ([1]; 150 mg BID (n = 4)): 3 (75.0) n (%) | ≥ 10% TRAE: Neutropenia ([1]; 150 mg BID (n = 4)): 3 (75.0) n (%) | ≥ 10% TRAE: Sinus bradycardia ([1]; 150 mg BID (n = 4)): 1 (25.0) n (%) | dose-limiting toxicity (DLT) ([1]; 150 mg BID group, one participant, within the DLT observation window): grade 3 increased alanine aminotransferase (ALT); also recorded: Only one DLT was observed | Patients with any TEAE, maximum CTCAE Grade 1 ([1]; Total (n = 24)): 15 (62.5) n (%) | Patients with any TEAE, maximum CTCAE Grade 2 ([1]; Total (n = 24)): 6 (25.0) n (%) | Patients with any TEAE, maximum CTCAE Grade 3 ([1]; Total (n = 24)): 1 (4.2) n (%) | ≥ 10% TRAE: ALT increased ([1]; Total (n = 24)): 5 (20.8) n (%) | ≥ 10% TRAE: AST increased ([1]; Total (n = 24)): 5 (20.8) n (%) | ≥ 10% TRAE: Decreased appetite ([1]; Total (n = 24)): 3 (12.5) n (%) | ≥ 10% TRAE: Diarrhea ([1]; Total (n = 24)): 4 (16.7) n (%) | ≥ 10% TRAE: ECG QT prolonged ([1]; Total (n = 24)): 5 (20.8) n (%) | ≥ 10% TRAE: Fatigue ([1]; Total (n = 24)): 4 (16.7) n (%) | ≥ 10% TRAE: GGT increased ([1]; Total (n = 24)): 4 (16.7) n (%) | ≥ 10% TRAE: Hypercholesterolemia ([1]; Total (n = 24)): 3 (12.5) n (%) | ≥ 10% TRAE: Hypertriglyceridemia ([1]; Total (n = 24)): 5 (20.8) n (%) | ≥ 10% TRAE: LDL increased ([1]; Total (n = 24)): 3 (12.5) n (%) | ≥ 10% TRAE: Leukocytopenia ([1]; Total (n = 24)): 10 (41.7) n (%) | ≥ 10% TRAE: Neutropenia ([1]; Total (n = 24)): 4 (16.7) n (%) | ≥ 10% TRAE: Sinus bradycardia ([1]; Total (n = 24)): 4 (16.7) n (%) | TRAEs of CTCAE grade 1 ([1]; all doses): 62.5% | TRAEs of CTCAE grade 2 ([1]; all doses): 25% | other serious treatment-related AEs (besides the DLT) ([1]; all doses): No other serious treatment-related AEs were reported | mean ALT change from baseline ([1]; all doses except the 10-mg and 80-mg doses): increased slightly | mean AST change from baseline ([1]; all doses except the 10-mg, 60-mg, and 80-mg doses): increased slightly | treatment-related AE: hypertriglyceridemia ([1]; all doses, 24 patients): 20.8% | treatment-related AE: increased alanine aminotransferase ([1]; all doses, 24 patients): 20.8% | treatment-related AE: increased aspartate aminotransferase ([1]; all doses, 24 patients): 20.8% | treatment-related AE: leukocytopenia ([1]; all doses, 24 patients): 41.7% | treatment-related AE: prolonged electrocardiogram QT interval ([1]; all doses, 24 patients): 20.8% | deaths within 28 days of the last dose ([1]; attributed to disease progression unrelated to treatment): One | association of AE rates, laboratory parameters, vital signs, ECG, other safety data with dose levels ([1]; descriptive results): No apparent associations | participants with TEAEs leading to LXI-15029 discontinuation ([1]; of 24 participants): Three | participants with a TRAE leading to LXI-15029 discontinuation ([1]; of 24 participants): one | participants with a serious TRAE ([1]; of 24 participants): one | participants with serious TEAEs ([1]; of 24 participants): Five | participants with treatment-emergent AEs (TEAEs) ([1]; of 24 participants): 24 participants | participants with treatment-related AEs (TRAEs) ([1]; of 24 participants): 22 participants | patients with TEAEs occurring within 30 days after LXI-15029 discontinuation ([1]; of 24 participants): Eleven | treatment discontinuation because of AEs ([1]; of 24 participants): 2 (8.3%) n (%) | treatment discontinuation because of DLT ([1]; of 24 participants): 1 (4.2%) n (%) | tolerability ([1]; oral BID, 10 to 150 mg): well tolerated at all doses; also recorded: well tolerated at all dose levels; also recorded: well tolerable | maximum tolerated dose (MTD) ([1]; oral monotherapy, Chinese patients with advanced solid tumors): 110 mg BID | disease control rate (DCR) ([2]; 8/20 evaluable, 95% CI 21.7–60.6): 40% | complete or partial response (CR or PR) ([2]; 20 evaluable participants): No participants achieved CR or PR | median progression-free survival ([2]; evaluable patients, overall, from first dose): 29 days | relationship between Ctrough and median PFS or DCR ([2]; exposure-efficacy analysis): no relationship was found | DCR-dose correlation ([2]; in vivo): No DCR-dose correlation was observed | patients with stable disease ([2]; of 20 evaluable): Eight | duration of SD ([2]; one participant with fibrosarcoma, 20 mg BID): 344 days | median PFS ([2]; patients with breast cancer, 95% CI: 0.89–4.63): 0.95 months | median PFS ([2]; patients with sarcoma, 95% CI: 0.92–11.33): 0.97 months
